From patent publication US20250195528A1, “DOSE REGIMEN OF VICASINABIN” (Hoffmann-La Roche Inc., priority 2022, published 2025)
“Also recorded” adds a separate entry of the source. Where two headings read alike, the source gives them in different places.

Experiments:
[1] = Study BP40387 Part 1 (SAD) pharmacokinetics, healthy participants; assay type: in vivo, human; settings: for Tmax / half-life / AUC / Cmax: both sexes, human, plasma
Method: In Part 1 (SAD) of Study BP40387, in the fasted state, RO6868847 was overall rapidly absorbed; however, the Tmax appeared to shift with increasing dose. Individual Tmax ranged between 1 to 6 hours at 100 mg and 300 mg RO6868847.

rat CB2 = target: T1, rat CB2 (Rattus norvegicus, UniProt Q9QZN9); assay: Forskolin-stimulated cAMP inhibition in stably transfected CHO cells; assay type: cell-based
T1 construct: expressed in transfected cells; host or cells: CHO cells
T1 sequence (Q9QZN9 1-360): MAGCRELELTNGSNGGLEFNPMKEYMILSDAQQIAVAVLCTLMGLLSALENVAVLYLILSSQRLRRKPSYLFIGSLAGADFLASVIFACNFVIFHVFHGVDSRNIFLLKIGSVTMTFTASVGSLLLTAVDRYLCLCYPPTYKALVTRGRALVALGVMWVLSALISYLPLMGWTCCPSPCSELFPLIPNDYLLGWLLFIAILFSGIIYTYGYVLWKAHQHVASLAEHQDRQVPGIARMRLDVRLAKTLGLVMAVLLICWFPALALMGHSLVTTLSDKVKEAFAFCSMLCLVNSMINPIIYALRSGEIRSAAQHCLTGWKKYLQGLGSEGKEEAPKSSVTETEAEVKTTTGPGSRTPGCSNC
From the text: (§1) Inhibition of cAMP accumulation in Chinese hamster ovary cells stably expressing recombinant CB2 was used to determine the functional potency of RO6868847 for different CB2 species and the selectivity over the closely related CB1.

human CB2 = target: T2, human CB2 (Homo sapiens, UniProt P34972); assay: as above; assay type: cell-based; settings: for Emax: CHO, normalized to 10 μM CP55′940; for IC50: IC50 ± SE (nM), CHO cells
T2 construct: expressed in transfected cells; host or cells: CHO cells
From the text: as §1

[2] = Stability of drug substance; assay type: physicochemical
Method: For Phase I, film-coated tablets for oral administration containing 0.05, 0.75, 10, or 100 mg of RO6868847 drug substance were developed for clinical use. Three placebo film-coated tablets were formulated to match the active film-coated tablets in size and in appearance: one size to match the active 0.05 and 0.75 mg film-coated tablets and one size each to match the active 10 and 100 mg film-coated tablets.

[3] = Study BP40387 Part 3 (MAD) pharmacokinetics, once daily for 14 days;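 also: phase I trial BP40387 in healthy male and female volunteers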
Method: Study BP40387 was a Phase I study that was conducted in healthy male and female participants, and included 5 parts. Part 1 (SAD) consisted of an adaptive, single-ascending-dose, investigator/participant-blind, randomized, placebo-controlled, parallel study to investigate the safety, tolerability, and pharmacokinetics of RO6868847. Part 2 (FE), was designed as an open-label, randomized, two-period crossover, single dose investigation of the effect of food on the pharmacokinetics of RO6868847. Part 3 (MAD), was an adaptive, multiple-ascending-dose, investigator/participant-blind, randomized, placebo-controlled, parallel study to investigate the safety, tolerability, and pharmacokinetics of RO6868847 administered once-daily for 14 days. Part 4 (DDI-CYP Induction), was a non-randomized, open-label, fixed-sequence, two-period study to explore RO6868847-mediated CYP induction at 300 mg administered once-daily for 14 days, using midazolam, repaglinide, and bupropion as probe substrates for CYP3A, CYP2C8, and CYP2B6, respectively. […] Overall, in Part 1 (SAD), a total of 33 healthy participants received single oral doses of RO6868847 ranging between 0.75 mg and 300 mg, and 12 participants received placebo under fasting conditions. In Part 2 (FE), 8 participants received a single oral dose of 100 mg RO6868847 once after an overnight fast of at least 10 hours and once within 30 minutes after starting a high-calorie, high-fat breakfast. In Part 3 (MAD), a total of 30 participants received multiple oral doses of 6 mg to 300 mg RO6868847 QD for 14 days, and 10 participants received placebo.

cynomolgus monkey CB2 = cynomolgus monkey CB2 (Macaca fascicularis, UniProt G7NVV5); assay: Radioligand binding to CB2, CHO cells
[4] = tested on: STZ-induced Type 1 diabetes; assay type: in vivo; settings: rat, 10 mg/kg
Method: (§2) Pharmacological studies were performed in vitro and in vivo to investigate the potency, selectivity and activity of RO6868847. Pharmacological effects were determined in vivo in two different diabetic animal models which include the streptozotocin (STZ)-induced rat Type 1 diabetes and genetic Type 2 diabetes mouse models as well as in two acute models with acute inflammatory stimulus (LPS-injections) or laser injury (CNV). Additional in vitro pharmacology studies were performed to explore the pharmacological effect of RO6868847 and the suitability of the assays as biomarkers of target engagement and pharmacodynamic effect (PD) in human whole blood obtained from either healthy volunteers or diabetic patients.
(§3) The diversity of the tested models (including acute challenge versus disease-modifying models) and the absence of a recommended nonclinical DME/DR model with proven clinical translatability presents a challenge for the estimation of pharmacologically active exposure in humans.
Exposure was derived from satellite animals or extrapolated from previous PK or PD studies in the same species. […]

leukostasis in the eye = assay: Leukostasis in the eye, rodent diabetic and non-diabetic model; assay type: in vivo
Method: as §2, §3

[5] = single oral 0.75 mg, fasted, geo mean
[6] = single oral 3.0 mg, fasted, geo mean
[7] = single oral 10 mg, fasted, geo mean
[8] = single oral 30 mg, fasted, geo mean
[9] = single oral 100 mg, fasted, geo mean
[10] = single oral 300 mg, fasted, geo mean

T2 sequence (P34972 whole entry): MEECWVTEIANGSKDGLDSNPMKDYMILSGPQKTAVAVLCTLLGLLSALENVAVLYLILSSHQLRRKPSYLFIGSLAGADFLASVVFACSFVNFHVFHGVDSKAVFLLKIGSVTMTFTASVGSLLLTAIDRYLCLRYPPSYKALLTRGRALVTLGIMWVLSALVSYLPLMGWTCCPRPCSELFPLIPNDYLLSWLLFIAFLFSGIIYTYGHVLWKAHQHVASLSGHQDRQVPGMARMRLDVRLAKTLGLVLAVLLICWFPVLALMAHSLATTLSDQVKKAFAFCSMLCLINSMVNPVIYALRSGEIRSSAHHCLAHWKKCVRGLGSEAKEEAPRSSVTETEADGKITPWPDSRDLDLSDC
Sequence of cynomolgus monkey CB2 (G7NVV5 1-360): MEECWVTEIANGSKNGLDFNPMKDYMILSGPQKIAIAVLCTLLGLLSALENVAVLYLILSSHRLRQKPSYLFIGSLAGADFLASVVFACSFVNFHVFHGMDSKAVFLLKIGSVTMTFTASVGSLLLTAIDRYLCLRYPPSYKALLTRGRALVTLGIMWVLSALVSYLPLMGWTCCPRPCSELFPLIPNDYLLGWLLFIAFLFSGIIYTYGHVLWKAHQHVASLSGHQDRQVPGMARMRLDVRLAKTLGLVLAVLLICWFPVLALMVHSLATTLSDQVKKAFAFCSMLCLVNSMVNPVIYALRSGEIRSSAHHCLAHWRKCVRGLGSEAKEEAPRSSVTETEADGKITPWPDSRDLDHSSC

## Cn1nnnc1Cn1nnc2c(N3CC[C@H](O)C3)nc(C(C)(C)C)nc21 [RO6868847, (3S)-1-[5-tert-butyl-3-[(1-methyltetrazol-5-yl)methyl]triazolo[4,5-d]pyrimidin-7-yl]pyrrolidin-3-ol]
[1]; oral, Study BP40387, fasted conditions, across doses, read-out: median Tmax
  Tmax: 1 to 4 h
[1]; oral, single dose 100 mg and 300 mg, fasted, read-out: Individual Tmax
  Tmax: 1 to 6 h
[1]; oral, single dose, range across doses, read-out: apparent terminal elimination half-life
  half-life: 6.95 to 18.5 h
[1]; po, 0.75 mg, single oral 0.75 mg, fasted, median, read-out: Tmax
  Tmax: 1 h
[1]; po, 3 mg, single oral 3.0 mg, fasted, median, read-out: Tmax
  Tmax: 1 h
[1]; po, 10 mg, single oral 10 mg, fasted, median, read-out: Tmax
  Tmax: 1.75 h
[1]; po, 30 mg, single oral 30 mg, fasted, median, read-out: Tmax
  Tmax: 1.5 h
[1]; po, 100 mg, single oral 100 mg, fasted, median, read-out: Tmax
  Tmax: 1.75 h
[1]; po, 300 mg, single oral 300 mg, fasted, median, read-out: Tmax
  Tmax: 3 h
[1]; [5]
  AUC: 0.112 µg·h/mL
  Cmax: 0.00992 µg/mL
[1]; single oral 0.75 mg, fasted, geo mean, read-out: t1/2 (converted)
  half-life: 6.89 h
[1]; [6]
  AUC: 0.435 µg·h/mL
  Cmax: 0.04 µg/mL
[1]; single oral 3.0 mg, fasted, geo mean, read-out: t1/2 (converted)
  half-life: 7.99 h
[1]; [7]
  AUC: 0.972 µg·h/mL
  Cmax: 0.111 µg/mL
[1]; single oral 10 mg, fasted, geo mean, read-out: t1/2 (converted)
  half-life: 6.95 h
[1]; [8]
  AUC: 3.53 µg·h/mL
  Cmax: 0.355 µg/mL
[1]; single oral 30 mg, fasted, geo mean, read-out: t1/2 (converted)
  half-life: 6.97 h
[1]; [9]
  AUC: 12.5 µg·h/mL
  Cmax: 1.12 µg/mL
[1]; single oral 100 mg, fasted, geo mean, read-out: t1/2 (converted)
  half-life: 14.6 h
[1]; [10]
  AUC: 31.4 µg·h/mL
  Cmax: 2.5 µg/mL
[1]; single oral 300 mg, fasted, geo mean, read-out: t1/2 (converted)
  half-life: 18.5 h
[1]; doses beyond 100 mg
  dose-proportionality of Cmax and AUC: slightly less than dose-proportional
[1]; up to 100 mg
  dose-proportionality of Cmax and AUC: no pronounced deviations from dose-proportionality; also recorded: approximately dose-proportionally
Rat CB2
  IC50: 0.58 ± 0.04 nM
Rat CB2; CHO, Rats, normalized to 10 μM CP55′940
  Emax: 94.7%
Human CB2
  agonist character at human CB2: potent, full agonist
Human CB2; Human
  Emax: 103%
Human CB2; second row printed 'Human'
  Emax: 101%
  IC50: 2.6 ± 0.14 nM
Human CB2; Human, four independent experiments
  IC50: 2.81 ± 0.28 nM
[2]
  stability to temperature stress: fairly stable
[2]; solid state and solution
  stability to light: stable to light
[3]; in vivo
  time dependence of pharmacokinetics: absence of relevant PK time dependencies; also recorded: no evidence of time-dependent pharmacokinetics
[3]; once-daily dosing
  time to steady state: approximately after the second day of dosing; also recorded: approximately after the second day of treatment
[3]; once-daily dosing, independent of dose
  accumulation of Cmax and AUCtau: only minor accumulation
Cynomolgus monkey CB2
  IC50: 103 ± 17.2 nM
Cynomolgus monkey CB2; read-out: Ki ± SE
  Ki: 66.8 nM
[4]
  effect on disease marker: full effect
[4]; in vivo
  unbound AUC0-24 [S-epimer], upper bound of pharmacologically active exposure: 546 ng·hr/mL
Leukostasis in the eye
  leukostasis in the eye: inhibition of leukostasis in the eye
